According to patent US20110262544A1, “OPHTHALMIC ADMINISTRATION OF A COMPOSITION INCLUDING BRIMONIDINE AS A MIST” (PHARMALIGHT INC., priority 2008, published 2011):

How the values were obtained:
[1] = tested on: albino New Zealand white rabbits; details: conclusion from retinal blood flow in rabbits
Experimental: Retinal blood flow rate in the major temporal vein in the right eye of albino New Zealand white rabbits is measured at pre-administration baseline, as well as post-administration of Alphagan® P as drops, post-administration of a composition comprising brimonidine and a penetration enhancer as a mist, and post-administration of a composition in accordance with the principles of the present invention comprising brimonidine or a salt thereof and being devoid of a penetration enhancer as a mist. […] In this instrument, the measuring laser beam is locked onto the target blood vessel during eye movements through an eye-tracking feedback and control system. Doppler-shifted laser light scattered from a retinal vessel is analyzed to determine centerline blood velocity.
Venous blood flow, which is known to be directly correlated to arterial blood flow, is measured, since retinal veins have a larger diameter than retinal arteries, facilitating better locking of the measuring laser beams onto the target vessel. […]
The beam from a red 675-nm diode laser is used for velocity measurement, emitted from a fundus camera-like measuring head. The Doppler-shifted light scattered from the flowing blood cells in the target vessel is detected simultaneously in two directions, separated by a fixed angle. […]
Following administration of the composition, the blood flow velocity in the same veins is measured.

Glaucoma patients = details: normal tension glaucoma patients; cited from earlier work

Brc1c(NC2=NCCN2)ccc2nccnc12 [brimonidine, 5-Bromo-N-(4,5-dihydro-1H-imidazol-2-yl) quinoxalin-6-amine]
efficacy compared between ways of administration or compositions [1]: as effective as administration in the form of eye-drops | maintenance of retinal blood flow homeostasis with changes in posture (Glaucoma patients): maintained retinal blood flow homeostasis

CC(C)OC(=O)CCC/C=C\C[C@@H]1[C@@H](CC[C@@H](O)CCc2ccccc2)[C@H](O)C[C@@H]1O [latanoprost]
maintenance of retinal blood flow homeostasis with changes in posture (Glaucoma patients): not
